What was measured:
[1] = system: hemizygous PMP22 transgenic rat (CMT rat); assay: Bar test in CMT transgenic rat model; type: in vivo; settings: CMT rats; for bar test performance compared with the placebo group: 16 weeks of treatment; for improvement of bar test motor performances versus placebo: after 8 weeks of the force-feeding; for bar test performances throughout the treatment procedure: chronic treatment
Description: Four weeks-old rats transgenic PMP22 rats have been used throughout of the study. Aspects of the study design (randomization, statistics for multiple comparisons, sample size etc.) have been checked to be in line with the recommendations provided in 4th issue of 43rd volume of ILAR Journal (2002), that provides reviews in the field of experimental design and statistics in biomedical research.
The experimental groups are formed with young rats of both genders separately. The rats are assigned to the groups following randomization schedule based on the body weight. In some experiments the randomization is based on the performances of the rats in the bar test.
Both genders are represented by separate control groups that are numerically equal or bigger than the treatment groups.
The animals are weighted twice a week in order to adjust the doses to growing body weight. If the osmotic pump is chosen for the treatment administration, the doses of the drug are calculated on the basis of the estimated mean body weight of the animals expected for their age over the period of the pump duration (6 weeks). The pumps are re-implanted if necessary, with the appropriated aesthesia protocol.
Each three or four weeks the animals are subjected to a behavioural test. Each test is conducted be the same investigator in the same room and at the same time of the day; this homogeneity is maintained throughout entire experiment. All treatments are blinded for the investigator. “Bar test” and “Grip strength” has been mainly used to access the performance throughout study. The schedule of the bar test may change as the animal growth (in order to avoid the bias due to the learning, for example).
The Bar Test evaluates rats' ability to hold on a fix rod. […] The rat is placed on its four paws on the middle of the rod (diameter: 2.5 cm; length: 50 cm; 30 cm above the table). Trials are performed consecutively; the number and the duration of trials in our experiments have been depending on batches of the animals. This variability in the testing have been introduced in order to determine the schedule appropriated to the best detection of the motor deficiency in the CMT rats in the course of the experiments.
Performance indices are recorded on each session: • The number of trials needed to hold for 60 sec (or 30 sec for batch 1, session 1 and 2) on the rod. • The time spent on the bar (i.e. the fall latency) in each trial and the average on the session. In the experimental procedures where the session ends after the rat has stayed for a cut-off time, i.e. 30 or 60 s, on the bar, a performance of the cut-off time (30 s or 60 s) is assigned to trials not completed (eg: for batch 8, for an animal which stays on the bar less than 10 sec on trials 1, 2 and 3, then for 60 sec on trials 4 and 5, 60 s is assigned to trials 6 to 10). • The number of falls.

[2] = system: hemizygous PMP22 transgenic rat (CMT rat); assay: Electrophysiological evaluation in CMT transgenic rats; type: in vivo; settings: versus TG placebo group; for potential amplitude measured on the distal portion of the tail: CMT rats treated during 20 weeks
Description: When appropriate, the rats are subjected to electrophysiological evaluation and histological measurement.

[3] = system: PMP22 protein; assay: PMP22 protein expression analysis by flow cytometry (FACS) in Schwann cells; type: cell-based, rat; set-up: key to Protein (PMP22 expression decrease): +: significantly decreases PMP22 levels compared to control; settings: for Protein (PMP22 expression decrease): rat primary Schwann cells, FACS, 24 hrs
Protocol: One day later, Schwann cells are stimulated by combinations of drugs or drugs alone during 24 hrs (3 wells/condition). The preparation of each compound is performed just prior to its addition to the cell culture medium. Drugs are added to a defined medium composed of DMEM-F12, with 1% Insulin-Transferrin-Selenium-X (ITS, Invitrogen #51300), 16 μg/ml of Putrescine, 0.02 μg/ml of corticosterone, 10 nM Progesterone and 50 μg/ml of gentamicin. The absence of Forskolin during drug stimulation avoids adenylate cyclase saturation. 8 hrs, 24 hrs and 48 hrs after drugs incubation, supernatants are recovered, centrifuged and frozen. SC are detached with trypsin-EDTA. As soon as the majority of cells are in suspension, the trypsin is neutralised using DMEM with 10% FCS. Supernatants with cells are recovered and centrifuged. The pellets of cells are transferred in micro tubes, washed in PBS once and fixed with a specific solution (AbCys #Reagent A BUF09B). 10 minutes later, cells are rinsed once with PBS and kept at 4° C. Five days after cell fixation, all cell preparations with different incubation times are labelled using the following protocol. […] Cells are then centrifuged at 7000 rpm for 5 minutes and cell pellets are rinsed once in PBS. A secondary antibody is added, coupled to Alexa Fluor 488 (goat anti-rabbit IgG, Molecular Probes #A11008, 1/100), for one hour at room temperature. Cells are then centrifuged at 7000 rpm for 5 minutes and cell pellets are rinsed once in PBS. The labelling is increased adding a tertiary antibody coupled to Alexa Fluor 488 (chicken anti-goat IgG, Molecular Probes #A21467, 1/100) for one hour incubation, at room temperature. Cells are then rinsed once in PBS. Control without any antibody (unlabelled cells) is performed to determine the level of autofluorescence and adapted the sensitivity of the photomultiplicators. Control with both secondary and tertiary antibodies but without primary antibody, is performed to assess non specific binding of antibodies. Data acquisition and analysis are performed with a FACS Array cytometer and FACS Array software (Becton Dickinson) on 5000 cells. Forward Scatter (FSC) correlated with cell volume (size) and Side Scatter (SSC) depending on inner complexity of cells (granularity) are analysed. For expression of PMP22, analysis is performed within the total cells and percent of positive cells is calculated. Positive cells are cells with fluorescence intensity higher than the control with secondary antibody. We tested the ability of some drugs to inhibit PMP22 protein expression (FACS analysis). […] The results of the action of some individual drugs on the protein level of PMP22 are also shown on table 1 above.

| Structure (SMILES) | first dose shown to be active, as fraction of the dose equivalent to dosage used in human for the canonical indications [1] | bar test performance compared with the placebo group [1] | improvement of bar test motor performances versus placebo [1] | bar test performances throughout the treatment procedure [1] | potential amplitude measured on the distal portion of the tail [2] | nerve conduction velocity (NCV) ([2]; CMT rats) | Protein (PMP22 expression decrease) [3] | PMP22 protein expression, in words ([3]; Schwann cells in vitro, 24 hrs of incubation, compared to untreated controls) |
| --- | --- | --- | --- | --- | --- | --- | --- | --- |
| Cn1cc[nH]c1=S [Methimazole] | one fourth | significantly more performing | statistically significant | improved bar test performances | significantly improved | not significantly affected | + |  |
| CC[C@@H]1C(=O)OC[C@@H]1Cc1cncn1C [Pilocarpine] | one half | significantly more performing | statistically significant | improved bar test performances | failed to reach statistical significance |  | + | decreases expression of the PMP22 protein |

Reference: patent publication US8992891B2, “Therapeutic approaches for treating CMT and related disorders” (Pharnext, priority 2007, dated 2015)
